Data: EP3958980B1, “TARGETED NOVEL TRIAZOLOTHIADIAZINE DERIVATIVES FOR THE TREATMENT OF LUNG CANCER” (Anadolu Universitesi, priority 2020, dated 2021)
In brackets after ≈: the same amount, converted by molar mass. Several values for one entry are separate records, joined by “and”; a condition that tells them apart may be missing. Identical values can stand only once.

Experiments:
Type in all cases: cell-based, human
A549 cells [1] = test: JC-1 staining, mitochondrial membrane integrity by flow cytometry; settings: 24 hours, IC50 concentrations
Method: After the active compounds were determined with the MTT assay, the determination of mitochondrial membrane integrity in A549 cells depending on IC50 concentrations were carried out in flow cytometry with BD, Pharmingen flow cytometry kit according to the manufacturer's recommendations. Briefly, the cells were seeded with optimal density (must not exceed 1×10^6 cell/mL). Following this, the cells were incubated with concentrations and time suitable for the compounds to be tested. After treatment, each cell suspension was transferred into a 15 mL polystyrene centrifuge tube and the cells were centrifuged at 400 × g for 5 minutes at room temperature, and supernatant was removed. Later, 0.5 mL freshly prepared working solution was added to each pellet and was vortexed. The cells were incubated in JC-1 working solution at 37 °C for 10-15 minutes and they were washed twice. In the first wash, 2 mL 1X assay buffer was added and the cells were precisely suspended. Following this, the cells were centrifuged at 400 × g for 5 minutes and the supernatant was removed carefully. In the next wash, 1 mL 1X assay buffer was added and was vortexed. After the cells were centrifuged at 400 × g for 5 minutes, each cell pellet was suspended in a 0.5 mL 1X assay buffer and was vortexed. Finally, the cell is analyzed with flow cytometry.

A549 cells [2] = test: Cell cycle arrest by flow cytometry; settings: IC50 doses, 24 hours
Method: After the active compounds were determined with the MTT assay, their effects on the cell cycle in A549 cells depending on IC50 concentrations were carried out according to the manufacturer's recommendations. Briefly, the cells were suspended in a citrate buffer solution. The cells were centrifuged at 400 × g for 5 minutes at room temperature. The supernatant was removed and 250 µL solution A was added on the pellet. Following this, 200 µL solution B was added and it was kept at room temperature 10 minutes. Afterwards 200 µL solution C was added and it was kept at +4 °C for 10 minutes. The cells were analyzed with flow cytometry using BD Biosciences ModFit software.

A549 cells [3] = test: Annexin V FITC / PI flow cytometry (apoptosis); settings: IC50 concentrations; for Early apoptotic cells% / Late apoptotic cells% / Necrosis% / Viable cells%: 24 hours; for early and late apoptotic effects: sum of early and late apoptotic cells
Method: Briefly, after the cells were centrifuged for 4 minutes at 800 rpm, they were washed twice with 1 × PBS and were suspended in the 1 × Annexin-V binding solution at a concentration of 2-3 × 10^6 cell/mL and then 100 µL of the cell solution was transferred into tubes. Then, 5 µL of Annexin-V Fluorescein isothiocyanate (FITC) and 10 µL of propidium iodide (PI) solution were added to each tube, after incubation for 15 minutes at room temperature, 400 µL × Annexin-V binding solution was added to each tube and the cells were analyzed by flow cytometry (BD FACSCalibur™) within 1 hour. The early and late apoptotic cell percentages were calculated according to positive control.

Akt = Akt colorimetric in cell ELISA in A549 cells; settings: 24 hours; for Akt inhibition (in words): compared to cisplatin and GSK690693
Method: After 10.000 cells were seeded in the wells, they were kept in the incubator for 24 hours. […] Briefly, the medium was removed from the wells and 100 µL of 4% formaldehyde was added. The plate was incubated in a fume hood for 15 minutes. Formaldehyde was removed and the plate was washed twice with 1X […] (TBS) such as to be 100 µL/well. 1X TBS was removed and 100 µL 1X permeabilization solution was added to each well and it was kept at room temperature for 15 minutes. After the 1X permeabilization solution was removed, the wells were washed with 100 µL 1X TBS once. 1X TBS was removed and 100 µL quenching solution was added to each well and it was kept at room temperature for 20 minutes. Afterwards, this solution was removed. The plate was washed 1 time with 1X TBS and 100 µL blocking solution was added to the wells and it was kept at room temperature for 30 minutes. At the end of this period, the blocking solution was removed and 50 µL primary antibody was added to the wells. The plate was sealed with a cover and it was incubated overnight at 4 °C. The primary antibody was removed and the plate wells were washed 3 times with 100 µL 1X washing solution. After the washing solution was removed, 100 µL diluted horseradish peroxidase (HRP) conjugate was added and it was incubated at room temperature for 30 minutes. Later on this conjugate was removed and 100 µL 3,3',5,5'-tetramethylbenzidine (TMB) […] was added to each well and the absorbance values were read at 450 nm for 30 minutes. The experiment was carried out in triplicate. The values of the blank wells were subtracted from the values of the untreated control and treated cells. The Akt activity% was determined as the relative absorbance of treated versus untreated control cells.

ROCK = ROCK activity assay on lysates of treated A549 cells; settings: for ROCK Inhibition% / ROCK inhibition (in words): 24 hours; for ROCK Inhibition%: IC50 concentration (9: 5.75; 11: 0.73; 12: 0.80; 14: 2.63; Cisplatin: 23.00 µg/mL); for ROCK inhibition (in words): IC50 and IC50/2 concentrations
Method: The intracellular COX, Akt and ROCK inhibitory effects of the active compounds determined with the MTT assay, were measured with the colorimetric assay according to the manufacturer's recommendations.
Two wells were used for each sample. 90 µL active ROCK-II positive control and samples were added to the wells of the substrate plate. 10 X kinase solution comprising DTT and ATP was added to 10 µL wells and the kinase reaction was started and the plate was incubated at 30 °C for 30-60 minutes. 50 µL 0.5 M EDTA was added to each well at pH=8.0 and the reaction was stopped. The wells were emptied and they were washed 3 times with 250 µL 1X washing solution. After the final washing, 100 µL anti-phospho-MYPT1 (Thr696) antibody was added. The plate was closed and it was incubated at room temperature for 1 hour on an orbital shaker. After the wells were washed three times again, 100 µL HRP-conjugated secondary antibody was added and it was incubated again at room temperature for 1 hour on an orbital shaker. After the wells were emptied, they were washed 3 times. Then 100 µL of substrate solution was added. It was incubated at room temperature for 5-20 minutes on an orbital shaker. 100 µL of stop solution was added. The absorbance of each well was read at a wavelength of 450 nm in a spectrophotometric microplate reader.

[4] = IC50/2 concentration (9: 2.88; 11: 0.37; 12: 0.40; 14: 1.32; GSK690693: 3.34; Cisplatin: 11.50 µg/mL)
[5] = IC50/4 concentration (9: 1.44; 11: 0.18; 12: 0.20; 14: 0.66; GSK690693: 1.69; Cisplatin: 5.75 µg/mL)
[6] = IC50 concentration (9: 5.75; 11: 0.73; 12: 0.80; 14: 2.63; GSK690693: 6.75; Cisplatin: 23.00 µg/mL)

Structure (SMILES) | Mitochondrial membrane depolarized (P2) cells% (A549 cells [1]) [%] | Mitochondrial membrane polarized (P1) cells% (A549 cells [1]) [%] | G0/G1% (A549 cells [2]) [%] | G2/M% (A549 cells [2]) [%] | S% (A549 cells [2]) [%] | Early apoptotic cells% (A549 cells [3]) [%] | Late apoptotic cells% (A549 cells [3]) [%] | Necrosis% (A549 cells [3]) [%] | Viable cells% (A549 cells [3]) [%] | early and late apoptotic effects (A549 cells [3]) | Akt Inhibition% (Akt; [4]) [%] | Akt Inhibition% (Akt; [5]) [%] | Akt Inhibition% (Akt; [6]) | Akt inhibition (in words) (Akt) | IC50 (ROCK inhibition) (ROCK; 24 hours incubation) [µg/mL] | ROCK Inhibition% (ROCK) | ROCK inhibition (in words) (ROCK) | Akt Inhibition% (Akt; IC50 concentration (9: 5.75; 11: 0.73; 12: 0.80; 14: 2.63; GSK690693: 6.75; Cisplatin: 23.00 µg/mL), listed as cisplatin) [%] | ROCK Inhibition% (ROCK; listed as cisplatin) [%]
c1ccc(-c2ccc(C3=Nn4c(CCc5ccc6c(c5)OCO6)nnc4SC3)cc2)cc1 [Compound 14, 3-[2-(1,3-Benzodioxole-5-yl)ethyl]-6-(biphenyl-4-yl)-7H-[1,2,4]triazolo[3,4-b] [1,3,4]thiadiazine] | 47.20 | 53.20 | 54.92 | 7.91 | 37.17 | 4.20 | 21.70 | 34.60 | 39.50 | 25.90% and 34.50% | 15.99±3.66 | 23.51±3.00 | 44.30% and 44.30±5.68% | moderate Akt inhibition | 2.55 ± 0.21 (≈ 5.79 µM) | 53.85% and 53.85±8.85% |  |  | 
FC(F)(F)c1ccc(C2=Nn3c(CCc4ccc5c(c4)OCO5)nnc3SC2)cc1 [Compound 11, 3-[2-(1,3-Benzodioxole-5-yl)ethyl]-6-(4-trifluoromethylphenyl)-7H-[1,2,4]triazolo [3,4-b][1,3,4]thiadiazine] | 58.80 | 41.30 | 57.29 | 8.15 | 34.57 | 2.90 | 9.90 | 14.80 | 72.30 | 12.80% | 6.66±3.51 | 0.91±1.29 | 8.18±3.74% | did not exhibit significant Akt inhibition |  |  | did not exhibit significant ROCK inhibition |  | 
Fc1cccc(C2=Nn3c(CCc4ccc5c(c4)OCO5)nnc3SC2)c1 [Compound 12, 3-[2-(1,3-Benzodioxole-5-yl)ethyl]-6-(3-fluorophenyl)-7H-[1,2,4]triazolo [3,4-b] [1,3,4]thiadiazine] | 47.00 | 53.00 | 54.20 | 6.52 | 39.28 | 4.80 | 29.70 | 40.80 | 24.70 | 34.50% and 25.90% | 16.67±0.05 | 19.24±2.43 | 46.87% and 46.87±4.60% | moderate Akt inhibition |  |  | did not exhibit significant ROCK inhibition |  | 
CS(=O)(=O)c1ccc(C2=Nn3c(CCc4ccc5c(c4)OCO5)nnc3SC2)cc1 [Compound 9] | 8.80 | 91.10 | 53.29 | 9.66 | 37.04 | 5.00 | 16.20 | 6.30 | 72.50 | 21.20% | 7.31±1.48 | 15.99±1.06 | 45.47% and 45.47±3.76% | moderate Akt inhibition |  | 6.89±0.44% | did not exhibit significant ROCK inhibition |  | 
N.N.[Cl][Pt][Cl] [Cisplatin, reference compound] | 48.00 | 52.40 | 45.92 | 4.00 | 50.07 | 14.70 | 30.10 | 28.70 |  | 44.80% | 56.23±1.45 | 50.46±6.89 | 59.55±8.44% |  |  | 29.84±0.16% |  | 59.55 | 29.84
